Laboratory results reported in US11192859B2, “Quinoline compounds as modulators of RAGE activity and uses thereof” (NEW YORK UNIVERSITY, priority 2016, dated 2021).

Tests used:
[1] = test system: Murine vascular smooth muscle cells (SMCs); experiment: Smooth muscle cell migration assay (wounding assay), RAGE ligand CML-AGE; type: cell-based; parameters: key to SMC migration Assay, IC50 (nM): ****: No inhibition or bad fit or inhibition out of range; conditions: CML-AGE 10 μg/ml, 7 h; for IC50: Mus musculus, read-out: SMC migration Assay, IC50
Method: FIG. 4 depicts effects of compounds on RAGE ligand-stimulated migration of murine aortic smooth muscle cells (SMCs). Migration of SMCs after incubation with the indicated RAGE inhibitor compounds or the parent molecule (“C12”) quinolone from the Chem-Bridge library was assessed. SMCs were grown to confluence and serum-starved overnight. The following morning, serum free media was removed and compounds were added (1 μM). Immediately following the addition of compounds, the monolayer was wounded using a p200 pipette tip and allowed to incubate for 1.5 h. Following this incubation, compounds were removed and fresh media containing RAGE ligand, CML-AGE (10 μg/ml), was added for 7 h. All images were measured at TO and T7 h and an area ingrowth of effective migrating cells was calculated. Each compound was tested in three independent wells and each well was photographed in 3 separate locations for a total of 9 images used in assessing area ingrowth. Error bars represent SEM. * indicates p<0.05 comparing CML-AGE vs. CML-AGE and compound treatment and # indicates p<0.001 comparing CML-AGE vs. serum free medium (SFM) vehicle. Note that SFM is the vehicle into which the RAGE ligand, CML-AGE, is added for testing the effect of RAGE ligand.
Murine vascular smooth muscle cells (SMCs) were cultured from the aortas of 10-week old male mice using a modification of the procedure of Travo and Barret^17. SMCs were cultured following an explant protocol in accordance with institutional guidelines. Wild-type murine aortic vascular SMCs were isolated and used between passages 8 to 12. Migration in response to the RAGE ligand CML-AGE (CML, 10 μg/ml) or a general effector, not a RAGE ligand, PDGF-BB, 10 ng/ml (R&D systems, Minneapolis, Minn., USA) was assessed with a wounding assay. Cells were grown to confluence in 12-well plates and starved overnight. The following morning, serum free media was removed and compounds were added. Immediately following the addition of compounds, the monolayer was wounded using a p200 pipette tip and the compounds were allowed to incubate for 1.5 h. Following this incubation, all compounds were removed and fresh media containing RAGE ligand or general effector, PDGF-BB, was added for 7 h. Cells were maintained at 37° C. and 5% CO2. Images were obtained at TO and T7. Each image was measured and an area ingrowth of effective migrating cells was calculated. The SMC migration assay data for representative compounds, Compounds 229 and 247, is depicted in FIGS. 5a and 5b, respectively.

ctRAGE = ctRAGE (Homo sapiens (Human), UniProt Q15109); experiment: Fluorescence binding assay (native tryptophan fluorescence titration); parameters: key to Fluorescent Binding Assay, Kd (nM): ***: No binding; conditions: 10 nM ctRAGE, pH 7.0, 5% DMSO; for Kd: read-out: Fluorescent Binding Assay, Kd
Method: Native tryptophan fluorescence experiments were conducted using a Horiba Jobin Yvon Fluorolog spectrofluorometer. 1 mM of compound was dissolved in 10 mM phosphate buffer [pH 7.0] and 50% DMSO. ctRAGE was bacterially expressed and purified as described^1. 10 nM ctRAGE solution was individually titrated from 0.1 nM-100 μM with the compounds in 100 μL of 10 mM phosphate buffer [pH 7.0] and 5% DMSO. The excitation and emission wavelengths were 280 nm and 352 nm, respectively. Dissociation constants, Kd, were estimated from the changes in peak fluorescence intensities as a function of the free compound concentration by using Prism 5 software (GraphPad). Data were fit to the equation, (F−F0)/Fmax=[compound]/(Kd+[compound]) where F is the fluorescence intensity at a given compound concentration, F0 is the fluorescence intensity of the blank, and Fmax is the maximum fluorescence intensity.

Chain of ctRAGE (Q15109 364-404): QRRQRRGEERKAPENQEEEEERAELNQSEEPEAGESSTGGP

Structure (SMILES) | IC50 [1] [nM] | Kd (ctRAGE) [nM] | Fluorescent Binding Assay, Kd (nM) (ctRAGE) | SMC migration Assay, IC50 (nM) [1]
CC(=O)Nc1ccc(-c2cc(CN3CCOCC3)c3ccc(Cl)cc3n2)cc1 [Compound 226, N-(4-(7-chloro-4-(morpholinomethyl)quinolin-2-yl)phenyl)acetamide] | 3 | 25 |  | 
CCCN(C)Cc1cc(-c2ccc(NC(C)=O)cc2)nc2ccccc12 [Compound 236, N-(4-(4-((methyl(propyl)amino)methyl)quinolin-2-yl)phenyl)acetamide] | 0.1 | 56 |  | 
CCCCNCc1cc(-c2ccc(NC(C)=O)cc2)nc2ccccc12 [Compound 237, N-(4-(4-((butylamino)methyl)quinolin-2-yl)phenyl)acetamide] |  |  | *** | ****
CC(C)C(=O)Nc1ccc(-c2cc(CN3CCOCC3)c3ccccc3n2)cc1 [Compound 224, N-(4-(4-(morpholinomethyl)quinolin-2-yl)phenyl)isobutyramide] | 99 | 32 |  | 
CCCNCc1cc(-c2ccc(NC(C)=O)cc2)nc2ccccc12 [Compound 235, N-(4-(4-((propylamino)methyl)quinolin-2-yl)phenyl)acetamide] | 17 | 76 |  | 
COCCN(C)Cc1cc(-c2ccc(NC(C)=O)cc2)nc2ccccc12 [Compound 234, N-(4-(4-(((2-methoxyethyl)(methyl)amino)methyl)quinolin-2-yl)phenyl)acetamide] | 0.4 | 12 |  | 
CC(=O)Nc1ccc(-c2cc(CNCCN(C)C)c3ccccc3n2)cc1 [Compound 239, N-(4-(4-(((2-(dimethylamino)ethyl)amino)methyl)quinolin-2-yl)phenyl)acetamide] |  | 13 |  | ****
NCC(=O)Nc1ccc(-c2cc(CN3CCOCC3)c3ccccc3n2)cc1 [Compound 221, 2-amino-N-(4-(4-(morpholinomethyl)quinolin-2-yl)phenyl)acetamide] | 5000 | 34 |  | 
CC(=O)Nc1ccc(-c2cc(CN3CCOCC3)c3ccc(F)cc3n2)cc1 [Compound 225, N-(4-(7-fluoro-4-(morpholinomethyl)quinolin-2-yl)phenyl)acetamide] | 44 | 122 |  | 
CC(=O)Nc1ccc(-c2cc(CN3CCOCC3)c3ccc(C(N)=O)cc3n2)cc1 [Compound 230, 2-(4-acetamidophenyl)-4-(morpholinomethyl)quinoline-7-carboxamide] |  |  | *** | ****
CC(=O)Nc1ccc(-c2cc(CN3CCOCC3)c3ccccc3n2)cc1O [Compound 217, N-(2-hydroxy-4-(4-(morpholinomethyl)quinolin-2-yl)phenyl)acetamide] |  |  | *** | ****
COCC(=O)Nc1ccc(-c2cc(CN3CCOCC3)c3ccccc3n2)cc1 [Compound 220, 2-methoxy-N-(4-(4-(morpholinomethyl)quinolin-2-yl)phenyl)acetamide] | 300 | 22 |  | 
CC(=O)Nc1ccc(-c2cc(CN3CCOCC3)c3ccccc3n2)cc1Cl [Compound 215, N-(2-chloro-4-(4-(morpholinomethyl)quinolin-2-yl)phenyl)acetamide] | 460 | 27 |  | 
CC(=O)Nc1ccc(-c2cc(CN3CCOCC3)c3ccc(C)cc3n2)cc1 [Compound 227, N-(4-(7-methyl-4-(morpholinomethyl)quinolin-2-yl)phenyl)acetamide] |  | 10 |  | ****
CC(=O)NCC(=O)Nc1ccc(-c2cc(CN3CCOCC3)c3ccccc3n2)cc1 [Compound 222, 2-acetamido-N-(4-(4-(morpholinomethyl)quinolin-2-yl)phenyl)acetamide] | 3200 | 32 |  | 
CCC(=O)Nc1ccc(-c2cc(CN3CCOCC3)c3ccccc3n2)cc1 [Compound 223, N-(4-(4-(morpholinomethyl)quinolin-2-yl)phenyl)propionamide] |  | 72 |  | 
COCCNCc1cc(-c2ccc(NC(C)=O)cc2)nc2ccccc12 [Compound 233, N-(4-(4-(((2-methoxyethyl)amino)methyl)quinolin-2-yl)phenyl)acetamide] |  |  |  | ****

Second part, the compound after the results:

IC50 [1] [nM] | Kd (ctRAGE) [nM] | Fluorescent Binding Assay, Kd (nM) (ctRAGE) | SMC migration Assay, IC50 (nM) [1] | Structure (SMILES)
323 |  |  |  | COc1ccc2c(CN3CCOCC3)cc(-c3ccc(NC(C)=O)c(C#N)c3)nc2c1 [Compound 258, N-(2-cyano-4-(7-methoxy-4-(morpholinomethyl)quinolin-2-yl)phenyl)acetamide]
 |  | *** | **** | Cc1nc2ccc(-c3cc(CN4CCOCC4)c4ccccc4n3)cc2o1 [Compound 249, 2-methyl-6-(4-(morpholinomethyl)quinolin-2-yl)benzo[d]oxazole]
2000 | 1340 |  |  | CC(=O)Nc1ccc(-c2cc(CN3CCOCC3)c3ccc(Cl)cc3n2)cc1Cl [Compound 254, N-(2-chloro-4-(7-chloro-4-(morpholinomethyl)quinolin-2-yl)phenyl)acetamide]
 | 168 |  | **** | CC(=O)Nc1ccc(-c2cc(CN3CCOCC3)c3ccc(F)cc3n2)cc1Cl [Compound 251, N-(2-chloro-4-(7-fluoro-4-(morpholinomethyl)quinolin-2-yl)phenyl)acetamide]
 |  |  | **** | CC(=O)Nc1ccc(-c2cc(CN3CCOCC3)c3ccc(C#N)cc3n2)cc1F [Compound 259, N-(4-(7-cyano-4-(morpholinomethyl)quinolin-2-yl)-2-fluorophenyl)acetamide]
1500 |  |  |  | COc1ccc2c(CN3CCOCC3)cc(-c3ccc(NC(C)=O)c(Cl)c3)nc2c1 [Compound 257, N-(2-chloro-4-(7-methoxy-4-(morpholinomethyl)quinolin-2-yl)phenyl)acetamide]
 |  | *** | **** | CC(=O)Nc1ccc(-c2cc(CN3CCN(C)CC3)c3ccccc3n2)cc1 [Compound 245, N-(4-(4-((4-methylpiperazin-1-yl)methyl)quinolin-2-yl)phenyl)acetamide]
 |  | *** | **** | Cc1nc2ccc(-c3cc(CN4CCOCC4)c4ccccc4n3)cc2[nH]1 [Compound 248, 4-((2-(2-methyl-1H-benzo[d]imidazol-6-yl)quinolin-4-yl)methyl)morpholine]
61 | 29 |  |  | CC(=O)Nc1ccc(-c2cc(CN3CCOCC3)c3ccc(F)cc3n2)cc1C#N [Compound 252, N-(2-cyano-4-(7-fluoro-4-(morpholinomethyl)quinolin-2-yl)phenyl)acetamide]
2900 |  |  |  | CCOc1ccc2c(CN3CCOCC3)cc(-c3ccc(NC(C)=O)c(F)c3)nc2c1 [Compound 262, N-(4-(7-ethoxy-4-(morpholinomethyl)quinolin-2-yl)-2-fluorophenyl)acetamide]
 |  | *** | **** | CC(=O)Nc1ccc(-c2cc(CN(C)CCN(C)C)c3ccccc3n2)cc1 [Compound 240, N-(4-(4-(((2-(dimethylamino)ethyl)(methyl)amino)methyl)quinolin-2-yl)phenyl)acetamide]
14 |  |  |  | CC(=O)Nc1ccc(-c2cc(CN3CCOCC3)c3ccc(C#N)cc3n2)cc1Cl [Compound 260, N-(2-chloro-4-(7-cyano-4-(morpholinomethyl)quinolin-2-yl)phenyl)acetamide]
1 | 2 |  |  | CC(=O)Nc1ccc(-c2cc(CN3CCCCC3)c3ccccc3n2)cc1 [Compound 247, N-(4-(4-(piperidin-1-ylmethyl)quinolin-2-yl)phenyl)acetamide]
1400 |  |  |  | CC(=O)Nc1ccc(-c2cc(CN3CCOCC3)c3ccc(C#N)cc3n2)cc1C#N [Compound 261, N-(2-cyano-4-(7-cyano-4-(morpholinomethyl)quinolin-2-yl)phenyl)acetamide]
